In patent US12077503B2, “Substituted cyclic amides and their use as herbicides” (FMC CORPORATION, priority 2015, dated 2024):

Columns and labels:
Test in all cases: Test C preemergence
Assay type in all cases: in vivo
[1] = tested on: ryegrass, Italian (Italian ryegrass, Lolium multiflorum); details: for Plant response rating, Ryegrass, Italian: scale 0 to 100, 0 no effect, 100 complete control
Summary of the method: (§1)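 Assessment: visual, 13–15 d after treatment, 0 (no effect) to 100 (complete control) relative to controls. Treatment: preemergence to seeds in loam-sand soil, or postemergence to 1- to 4-leaf plants in peat-based medium. Formulation: non-phytotoxic solvent mixture with surfactant.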

[2] = tested on: lambsquarters (Chenopodium album); details: for Plant response rating, Lambsquarters: scale 0 to 100, 0 no effect, 100 complete control
Summary of the method: as §1

[3] = tested on: morningglory (Ipomoea coccinea); details: for Plant response rating, Morningglory: scale 0 to 100, 0 no effect, 100 complete control
Summary of the method: as §1

[4] = tested on: crabgrass, large (large crabgrass, Digitaria sanguinalis); details: for Plant response rating, Crabgrass, Large: scale 0 to 100, 0 no effect, 100 complete control
Summary of the method: as §1

[5] = tested on: waterhemp (common waterhemp, Amaranthus rudis); details: for Plant response rating, Waterhemp: scale 0 to 100, 0 no effect, 100 complete control
Summary of the method: as §1

[6] = tested on: ragweed (common ragweed, Ambrosia elatior); details: for Plant response rating, Ragweed: scale 0 to 100, 0 no effect, 100 complete control
Summary of the method: as §1

[7] = tested on: velvetleaf (Abutilon theophrasti); details: for Plant response rating, Velvetleaf: scale 0 to 100, 0 no effect, 100 complete control
Summary of the method: as §1

[8] = tested on: foxtail, giant (giant foxtail, Setaria faberii); details: for Plant response rating, Foxtail, Giant: scale 0 to 100, 0 no effect, 100 complete control
Summary of the method: as §1

[9] = tested on: Galium (catchweed bedstraw, Galium aparine); details: for Plant response rating, Galium: scale 0 to 100, 0 no effect, 100 complete control
Summary of the method: as §1

soybean (Glycine max) = details: for Plant response rating, Soybean: scale 0 to 100, 0 no effect, 100 complete control
Summary of the method: as §1

[10] = tested on: pigweed (Amaranthus retroflexus); details: for Plant response rating, Pigweed: scale 0 to 100, 0 no effect, 100 complete control
Summary of the method: as §1

[11] = tested on: blackgrass (Alopecurus myosuroides); details: for Plant response rating, Blackgrass: scale 0 to 100, 0 no effect, 100 complete control
Summary of the method: as §1

[12] = tested on: johnsongrass (Sorghum halepense); details: for Plant response rating, Johnsongrass: scale 0 to 100, 0 no effect, 100 complete control
Summary of the method: as §1

corn (Zea mays) = details: for Plant response rating, Corn: scale 0 to 100, 0 no effect, 100 complete control
Summary of the method: as §1

[13] = tested on: barnyardgrass (Echinochloa crus-galli); details: for Plant response rating, Barnyardgrass: scale 0 to 100, 0 no effect, 100 complete control
Summary of the method: as §1

[14] = tested on: wheat (winter wheat, Triticum aestivum); details: for Plant response rating, Wheat: scale 0 to 100, 0 no effect, 100 complete control
Summary of the method: as §1

[15] = tested on: oilseed rape (Brassica napus); details: for Plant response rating, Oilseed Rape: scale 0 to 100, 0 no effect, 100 complete control
Summary of the method: as §1

[16] = 31 g ai/ha, 0 is no effect, 100 is complete control

## O=C1NCC(c2cccc(OC(F)(F)C(F)F)c2)C1C(=O)Nc1cccc(F)c1F (racemic) [Compound 697]
[1]; [16]
  Plant response rating (scale of 0 to 100), Ryegrass, Italian: 15
[1]; 62 g ai/ha
  Plant response rating, Ryegrass, Italian: 55
[1]; 125 g ai/ha
  Plant response rating, Ryegrass, Italian: 45
[1]; 250 g ai/ha
  Plant response rating, Ryegrass, Italian: 50
[2]; [16]
  Plant response rating (scale of 0 to 100), Lambsquarters: 35
[2]; 62 g ai/ha
  Plant response rating, Lambsquarters: 40
[2]; 125 g ai/ha
  Plant response rating, Lambsquarters: 65
[2]; 250 g ai/ha
  Plant response rating, Lambsquarters: 60
[3]; [16]
  Plant response rating (scale of 0 to 100), Morningglory: 10
[3]; 62 g ai/ha
  Plant response rating, Morningglory: 10
[3]; 125 g ai/ha
  Plant response rating, Morningglory: 25
[3]; 250 g ai/ha
  Plant response rating, Morningglory: 30
[4]; [16]
  Plant response rating (scale of 0 to 100), Crabgrass, Large: 90
[4]; 62 g ai/ha
  Plant response rating, Crabgrass, Large: 95
[4]; 125 g ai/ha
  Plant response rating, Crabgrass, Large: 90
[4]; 250 g ai/ha
  Plant response rating, Crabgrass, Large: 95
[5]; [16]
  Plant response rating (scale of 0 to 100), Waterhemp: 80
[5]; 62 g ai/ha
  Plant response rating, Waterhemp: 80
[5]; 125 g ai/ha
  Plant response rating, Waterhemp: 85
[5]; 250 g ai/ha
  Plant response rating, Waterhemp: 85
[6]; [16]
  Plant response rating (scale of 0 to 100), Ragweed: 60
[6]; 62 g ai/ha
  Plant response rating, Ragweed: 80
[6]; 125 g ai/ha
  Plant response rating, Ragweed: 80
[6]; 250 g ai/ha
  Plant response rating, Ragweed: 80
[7]; [16]
  Plant response rating (scale of 0 to 100), Velvetleaf: 0
[7]; 62 g ai/ha
  Plant response rating, Velvetleaf: 25
[7]; 125 g ai/ha
  Plant response rating, Velvetleaf: 65
[7]; 250 g ai/ha
  Plant response rating, Velvetleaf: 35
[8]; [16]
  Plant response rating (scale of 0 to 100), Foxtail, Giant: 85
[8]; 62 g ai/ha
  Plant response rating, Foxtail, Giant: 85
[8]; 125 g ai/ha
  Plant response rating, Foxtail, Giant: 90
[8]; 250 g ai/ha
  Plant response rating, Foxtail, Giant: 90
[9]; [16]
  Plant response rating (scale of 0 to 100), Galium: 0
[9]; 62 g ai/ha
  Plant response rating, Galium: 85
[9]; 125 g ai/ha
  Plant response rating, Galium: 85
[9]; 250 g ai/ha
  Plant response rating, Galium: 90
Soybean (Glycine max); [16]
  Plant response rating (scale of 0 to 100), Soybean: 0
Soybean (Glycine max); 62 g ai/ha
  Plant response rating, Soybean: 10
Soybean (Glycine max); 125 g ai/ha
  Plant response rating, Soybean: 0
Soybean (Glycine max); 250 g ai/ha
  Plant response rating, Soybean: 10
[10]; [16]
  Plant response rating (scale of 0 to 100), Pigweed: 75
[10]; 62 g ai/ha
  Plant response rating, Pigweed: 80
[10]; 125 g ai/ha
  Plant response rating, Pigweed: 85
[10]; 250 g ai/ha
  Plant response rating, Pigweed: 85
[11]; [16]
  Plant response rating (scale of 0 to 100), Blackgrass: 70
[11]; 62 g ai/ha
  Plant response rating, Blackgrass: 75
[11]; 125 g ai/ha
  Plant response rating, Blackgrass: 90
[11]; 250 g ai/ha
  Plant response rating, Blackgrass: 90
[12]; [16]
  Plant response rating (scale of 0 to 100), Johnsongrass: 70
[12]; 62 g ai/ha
  Plant response rating, Johnsongrass: 75
[12]; 125 g ai/ha
  Plant response rating, Johnsongrass: 85
[12]; 250 g ai/ha
  Plant response rating, Johnsongrass: 85
Corn (Zea mays); [16]
  Plant response rating (scale of 0 to 100), Corn: 40
Corn (Zea mays); 62 g ai/ha
  Plant response rating, Corn: 65
Corn (Zea mays); 125 g ai/ha
  Plant response rating, Corn: 80
Corn (Zea mays); 250 g ai/ha
  Plant response rating, Corn: 75
[13]; [16]
  Plant response rating (scale of 0 to 100), Barnyardgrass: 85
[13]; 62 g ai/ha
  Plant response rating, Barnyardgrass: 90
[13]; 125 g ai/ha
  Plant response rating, Barnyardgrass: 90
[13]; 250 g ai/ha
  Plant response rating, Barnyardgrass: 90
[14]; [16]
  Plant response rating (scale of 0 to 100), Wheat: 0
[14]; 62 g ai/ha
  Plant response rating, Wheat: 0
[14]; 125 g ai/ha
  Plant response rating, Wheat: 10
[14]; 250 g ai/ha
  Plant response rating, Wheat: 35
[15]; [16]
  Plant response rating (scale of 0 to 100), Oilseed Rape: 20
[15]; 62 g ai/ha
  Plant response rating, Oilseed Rape: 70
[15]; 125 g ai/ha
  Plant response rating, Oilseed Rape: 80
[15]; 250 g ai/ha
  Plant response rating, Oilseed Rape: 85
